# Publication PMC5218480 (PLoS ONE, 2017)
# Test system: MV-4-11 cells
# Assay: Gene expression microarray analysis (Affymetrix PrimeView) and GSEA
# Type: cell-based, human
# Parameters: RFU PODN (11730768_x_at) / Fold change /veh PODN (11730768_x_at) / RFU LINC00158 (11744669_a_at) / Fold change /veh LINC00158 (11744669_a_at) / RFU DUSP10 (11751237_a_at) / Fold change /veh DUSP10 (11751237_a_at) / RFU ID3 (11757404_x_at) / Fold change /veh ID3 (11757404_x_at) / RFU PLEKHG5 (11737974_s_at) / Fold change /veh PLEKHG5 (11737974_s_at) / RFU LRRC4B (11730491_at) / Fold change /veh LRRC4B (11730491_at) / RFU GIMAP4 (11747438_a_at) / Fold change /veh GIMAP4 (11747438_a_at) / RFU KRT8 (11758183_x_at) / Fold change /veh KRT8 (11758183_x_at) / RFU CNN1 (11734310_a_at) / Fold change /veh CNN1 (11734310_a_at) / RFU VPS37D (11726825_at) / Fold change /veh VPS37D (11726825_at) / RFU C10orf10 (11716522_x_at) / Fold change /veh C10orf10 (11716522_x_at) / RFU KIR2DL2 /// KIR2DL4 /// KIR2DL5A /// KIR2DL5B /// KIR2DS1 /// KIR2DS2 /// KIR2DS3 /// KIR2DS4 /// KIR3DL3 /// KIR3DL3 /// KIR3DS1 (11738374_at) / Fold change /veh KIR2DL2 /// KIR2DL4 /// KIR2DL5A /// KIR2DL5B /// KIR2DS1 /// KIR2DS2 /// KIR2DS3 /// KIR2DS4 /// KIR3DL3 /// KIR3DL3 /// KIR3DS1 (11738374_at) / RFU C1QL1 (11718748_at) / Fold change /veh C1QL1 (11718748_at) / RFU TMPRSS4 (11747572_a_at) / Fold change /veh TMPRSS4 (11747572_a_at) / RFU HAMP (11756126_x_at) / Fold change /veh HAMP (11756126_x_at) / RFU RNFT2 (11725882_a_at) / Fold change /veh RNFT2 (11725882_a_at) / RFU NR4A2 (11747474_a_at) / Fold change /veh NR4A2 (11747474_a_at) / RFU ABCC12 (11746883_a_at) / Fold change /veh ABCC12 (11746883_a_at) / RFU TMEM136 (11760407_x_at) / Fold change /veh TMEM136 (11760407_x_at) / RFU CLDN22 /// WWC2 (11732394_at) / Fold change /veh CLDN22 /// WWC2 (11732394_at) / RFU HLA-DPB1 (11760878_x_at) / Fold change /veh HLA-DPB1 (11760878_x_at) / RFU SPINT1 (11716480_a_at) / Fold change /veh SPINT1 (11716480_a_at) / RFU GAP43 (11754022_s_at) / Fold change /veh GAP43 (11754022_s_at) / RFU A4GNT (11735810_at) / Fold change /veh A4GNT (11735810_at) / RFU PRB3 (11715151_x_at) / Fold change /veh PRB3 (11715151_x_at) / RFU TUBB4B (11761932_at) / Fold change /veh TUBB4B (11761932_at) / RFU CAPN14 (11732068_a_at) / Fold change /veh CAPN14 (11732068_a_at) / RFU TMCC2 (11721928_a_at) / Fold change /veh TMCC2 (11721928_a_at) / RFU IRGQ (11745062_a_at) / Fold change /veh IRGQ (11745062_a_at) / RFU FAM174B (11720279_a_at) / Fold change /veh FAM174B (11720279_a_at) / RFU TMPRSS4 (11748680_a_at) / Fold change /veh TMPRSS4 (11748680_a_at) / RFU FAM212B (11763350_a_at) / Fold change /veh FAM212B (11763350_a_at) / RFU PLEKHG5 (11743358_a_at) / Fold change /veh PLEKHG5 (11743358_a_at) / RFU ZSCAN30 (11745921_a_at) / Fold change /veh ZSCAN30 (11745921_a_at) / RFU CMKLR1 (11741424_a_at) / Fold change /veh CMKLR1 (11741424_a_at) / RFU LOC101060620 /// MAPK8IP1 (11723275_at) / Fold change /veh LOC101060620 /// MAPK8IP1 (11723275_at) / RFU SPTSSB (11747773_x_at) / Fold change /veh SPTSSB (11747773_x_at) / RFU PRSS12 (11739890_at) / Fold change /veh PRSS12 (11739890_at) / RFU BIN1 (11741810_x_at) / Fold change /veh BIN1 (11741810_x_at) / RFU WNT11 (11732464_a_at) / Fold change /veh WNT11 (11732464_a_at) / RFU C10orf10 (11716521_a_at) / Fold change /veh C10orf10 (11716521_a_at) / RFU C5orf56 (11738089_at) / Fold change /veh C5orf56 (11738089_at) / RFU CYB561 (11721691_x_at) / Fold change /veh CYB561 (11721691_x_at) / RFU ANKRD19P (11752326_a_at) / Fold change /veh ANKRD19P (11752326_a_at) / RFU OR2T12 /// OR2T33 /// OR2T8 (11738714_s_at) / Fold change /veh OR2T12 /// OR2T33 /// OR2T8 (11738714_s_at) / RFU VCAN (11748164_a_at) / Fold change /veh VCAN (11748164_a_at) / RFU JSRP1 (11732532_at) / Fold change /veh JSRP1 (11732532_at) / RFU KRTAP10-11 (11738290_x_at) / Fold change /veh KRTAP10-11 (11738290_x_at) / RFU MYO3A (11730013_a_at) / Fold change /veh MYO3A (11730013_a_at) / RFU EBF3 (11725865_a_at) / Fold change /veh EBF3 (11725865_a_at) / RFU CAMK2N1 (11719241_x_at) / Fold change /veh CAMK2N1 (11719241_x_at) / RFU C5orf56 (11738088_a_at) / Fold change /veh C5orf56 (11738088_a_at) / RFU OLFML3 (11715873_a_at) / Fold change /veh OLFML3 (11715873_a_at) / RFU LOC100653217 /// NTM (11731650_a_at) / Fold change /veh LOC100653217 /// NTM (11731650_a_at) / RFU MAPK11 (11762145_a_at) / Fold change /veh MAPK11 (11762145_a_at) / RFU FIZ1 (11724087_x_at) / Fold change /veh FIZ1 (11724087_x_at) / RFU OASL (11726364_x_at) / Fold change /veh OASL (11726364_x_at) / RFU SOX15 (11748057_x_at) / Fold change /veh SOX15 (11748057_x_at) / RFU CD79A (11719716_a_at) / Fold change /veh CD79A (11719716_a_at) / RFU HIST1H1D (11736915_at) / Fold change /veh HIST1H1D (11736915_at) / RFU CASKIN2 (11723855_a_at) / Fold change /veh CASKIN2 (11723855_a_at) / RFU LOC730098 (11760151_x_at) / Fold change /veh LOC730098 (11760151_x_at) / RFU OR4N2 (11742367_at) / Fold change /veh OR4N2 (11742367_at) / RFU PRRT2 (11749266_a_at) / Fold change /veh PRRT2 (11749266_a_at) / RFU SNX32 (11753110_a_at) / Fold change /veh SNX32 (11753110_a_at) / RFU CDHR5 (11726645_a_at) / Fold change /veh CDHR5 (11726645_a_at) / RFU RCAN1 (11760418_a_at) / Fold change /veh RCAN1 (11760418_a_at) / RFU FAM167A (11723789_a_at) / Fold change /veh FAM167A (11723789_a_at) / RFU FAM26E (11764081_at) / Fold change /veh FAM26E (11764081_at) / RFU ISYNA1 (11749810_s_at) / Fold change /veh ISYNA1 (11749810_s_at) / RFU ACY1 (11761880_at) / Fold change /veh ACY1 (11761880_at) / RFU 11764098_at / Fold change /veh 11764098_at / RFU SAMD14 (11745864_x_at) / Fold change /veh SAMD14 (11745864_x_at) / RFU NPB (11741838_a_at) / Fold change /veh NPB (11741838_a_at) / RFU TMPRSS6 (11731388_a_at) / Fold change /veh TMPRSS6 (11731388_a_at) / RFU KRTAP10-2 (11738614_at) / Fold change /veh KRTAP10-2 (11738614_at) / RFU ARHGAP8 /// PRR5-ARHGAP8 (11727945_x_at) / Fold change /veh ARHGAP8 /// PRR5-ARHGAP8 (11727945_x_at) / RFU KRTAP5-7 /// NADSYN1 (11734609_at) / Fold change /veh KRTAP5-7 /// NADSYN1 (11734609_at) / RFU RASL12 (11751679_a_at) / Fold change /veh RASL12 (11751679_a_at) / RFU CDKN2B (11736163_a_at) / Fold change /veh CDKN2B (11736163_a_at) / RFU PRF1 (11729649_at) / Fold change /veh PRF1 (11729649_at) / RFU, ZNF638 /// ZNF638-IT1 / Fold change vs veh, ZNF638 /// ZNF638-IT1 / RFU, PANK3 / Fold change vs veh, PANK3 / RFU, SH3YL1 / Fold change vs veh, SH3YL1 / RFU, ZEB2 / Fold change vs veh, ZEB2 / RFU, NRIP1 / Fold change vs veh, NRIP1 / RFU, PTTG1IP / Fold change vs veh, PTTG1IP / RFU, CAPN2 / Fold change vs veh, CAPN2 / RFU, MED14 / Fold change vs veh, MED14 / RFU, SNORA58 / Fold change vs veh, SNORA58 / RFU, C1orf63 / Fold change vs veh, C1orf63 / RFU, LRRFIP1 / Fold change vs veh, LRRFIP1 / RFU, NDUFAF7 / Fold change vs veh, NDUFAF7 / RFU, SLC12A2 / Fold change vs veh, SLC12A2 / RFU, IBTK / Fold change vs veh, IBTK / RFU, ESF1 / Fold change vs veh, ESF1 / Fold change vs veh, TMEM50B / RFU, TAOK1 / Fold change vs veh, TAOK1 / RFU, ACBD3 / Fold change vs veh, ACBD3 / RFU, TMA16 / Fold change vs veh, TMA16 / RFU, RWDD3 / Fold change vs veh, RWDD3 / RFU, BCAT1 / Fold change vs veh, BCAT1 / RFU, EDEM3 / Fold change vs veh, EDEM3 / RFU, TMEM33 / Fold change vs veh, TMEM33 / RFU, WDR75 / Fold change vs veh, WDR75 / RFU, AHCTF1 / Fold change vs veh, AHCTF1 / RFU, TFRC / Fold change vs veh, TFRC / RFU, ZDHHC17 / Fold change vs veh, ZDHHC17 / RFU, NOM1 / Fold change vs veh, NOM1 / RFU, ARL8B / Fold change vs veh, ARL8B / RFU, ZBTB11 / Fold change vs veh, ZBTB11 / RFU, TAMM41 / Fold change vs veh, TAMM41 / RFU, KIAA1704 /// LOC100996395 / Fold change vs veh, KIAA1704 /// LOC100996395 / RFU, ING1 / Fold change vs veh, ING1 / RFU, TRMT61B / Fold change vs veh, TRMT61B / RFU, FUBP3 / Fold change vs veh, FUBP3 / RFU, TP53 / Fold change vs veh, TP53 / RFU, TNKS2 / Fold change vs veh, TNKS2 / RFU, ZFP14 / Fold change vs veh, ZFP14 / RFU, ACTR2 / Fold change vs veh, ACTR2 / RFU, PPP3R1 / Fold change vs veh, PPP3R1 / RFU, PIK3R1 / Fold change vs veh, PIK3R1 / RFU, HNRNPA1 / Fold change vs veh, HNRNPA1 / RFU, RNF170 / Fold change vs veh, RNF170 / RFU, ZNF28 / Fold change vs veh, ZNF28 / RFU, RNGTT / Fold change vs veh, RNGTT / RFU, OGT / Fold change vs veh, OGT / RFU, BRD1 / Fold change vs veh, BRD1 / RFU, MARS / Fold change vs veh, MARS / RFU, ZNF655 / Fold change vs veh, ZNF655 / RFU, FAHD1 / Fold change vs veh, FAHD1 / RFU, BDP1 / Fold change vs veh, BDP1 / RFU, LRRCC1 / Fold change vs veh, LRRCC1 / RFU, ARID1A / Fold change vs veh, ARID1A / RFU, ZNF146 / Fold change vs veh, ZNF146 / RFU, ZNF330 / Fold change vs veh, ZNF330 / RFU, GPN3 / Fold change vs veh, GPN3 / RFU, C9orf123 / Fold change vs veh, C9orf123 / RFU, N4BP2L2 / Fold change vs veh, N4BP2L2 / RFU, ARFIP1 / Fold change vs veh, ARFIP1 / RFU, FAM179B / Fold change vs veh, FAM179B / RFU, BCL10 / Fold change vs veh, BCL10 / RFU, UHRF1BP1L / Fold change vs veh, UHRF1BP1L / RFU, BET1 / Fold change vs veh, BET1 / RFU, CNOT2 / Fold change vs veh, CNOT2 / RFU, ZNF268 / Fold change vs veh, ZNF268 / Fold change vs veh, ZNF507 / RFU, DGCR2 / Fold change vs veh, DGCR2 / RFU, WDSUB1 / Fold change vs veh, WDSUB1 / Fold change vs veh, HSP90B1 /// MIR3652 / RFU, ADSS / Fold change vs veh, ADSS / RFU, GK / Fold change vs veh, GK / RFU, ZNF148 / Fold change vs veh, ZNF148 / RFU, TAF9 / Fold change vs veh, TAF9 / RFU, SLC1A5 / Fold change vs veh, SLC1A5 / RFU, SLMO2 / Fold change vs veh, SLMO2 / RFU, ABCC4 / Fold change vs veh, ABCC4 / RFU, LOC101060439 /// RAP1B / Fold change vs veh, LOC101060439 /// RAP1B / RFU, RFX7 / Fold change vs veh, RFX7 / RFU, GTPBP10 / Fold change vs veh, GTPBP10 / RFU, CNEP1R1 / Fold change vs veh, CNEP1R1 / RFU, BIVM-ERCC5 /// ERCC5 / Fold change vs veh, BIVM-ERCC5 /// ERCC5 / RFU, ILF3 / Fold change vs veh, ILF3 / RFU 11762660_at / Fold change /veh 11762660_at / RFU VCAN (11757783_s_at) / Fold change /veh VCAN (11757783_s_at) / RFU DDX43 (11728927_at) / Fold change /veh DDX43 (11728927_at) / RFU KRT8 (11758188_x_at) / Fold change /veh KRT8 (11758188_x_at) / RFU NKD1 (11759106_at) / Fold change /veh NKD1 (11759106_at) / RFU SRD5A1 (11742802_a_at) / Fold change /veh SRD5A1 (11742802_a_at) / RFU TPSAB1 /// TPSB2 (11721975_s_at) / Fold change /veh TPSAB1 /// TPSB2 (11721975_s_at) / RFU GSTM3 (11746129_a_at) / Fold change /veh GSTM3 (11746129_a_at) / RFU IL23R (11737362_x_at) / Fold change /veh IL23R (11737362_x_at) / RFU TMEM51 (11727254_a_at) / Fold change /veh TMEM51 (11727254_a_at) / RFU PIWIL2 (11732686_x_at) / Fold change /veh PIWIL2 (11732686_x_at) / RFU ORM1 (11744905_x_at) / Fold change /veh ORM1 (11744905_x_at) / RFU CCDC152 (11743942_at) / Fold change /veh CCDC152 (11743942_at) / RFU ECM1 (11717891_a_at) / Fold change /veh ECM1 (11717891_a_at) / RFU IL23R (11748794_a_at) / Fold change /veh IL23R (11748794_a_at) / RFU TNFAIP8L3 (11732012_x_at) / Fold change /veh TNFAIP8L3 (11732012_x_at) / RFU MBOAT4 (11741988_at) / Fold change /veh MBOAT4 (11741988_at) / RFU 11764193_at / Fold change /veh 11764193_at / RFU TMEM53 (11763286_at) / Fold change /veh TMEM53 (11763286_at) / RFU MAGEB2 (11727129_at) / Fold change /veh MAGEB2 (11727129_at) / RFU TMEM200A (11744735_a_at) / Fold change /veh TMEM200A (11744735_a_at) / RFU CCDC152 (11751479_a_at) / Fold change /veh CCDC152 (11751479_a_at) / RFU FAM211A (11726209_a_at) / Fold change /veh FAM211A (11726209_a_at) / RFU RGS16 (11746705_a_at) / Fold change /veh RGS16 (11746705_a_at) / RFU VCAN (11755009_s_at) / Fold change /veh VCAN (11755009_s_at) / RFU RHOB (11743442_s_at) / Fold change /veh RHOB (11743442_s_at) / RFU RGS16 (11720943_a_at) / Fold change /veh RGS16 (11720943_a_at) / RFU RGS16 (11720944_at) / Fold change /veh RGS16 (11720944_at) / RFU, VPS4B / Fold change vs veh, VPS4B / RFU, CREB1 / Fold change vs veh, CREB1 / RFU, DNAJC13 / Fold change vs veh, DNAJC13 / RFU, GNAQ / Fold change vs veh, GNAQ / RFU, CDK5R1 / Fold change vs veh, CDK5R1 / RFU, ZRANB3 / Fold change vs veh, ZRANB3 / RFU, CUL4A / Fold change vs veh, CUL4A / RFU, CCNY / Fold change vs veh, CCNY / RFU, UFL1 / Fold change vs veh, UFL1 / RFU, COG3 / Fold change vs veh, COG3 / RFU, DIAPH2 / Fold change vs veh, DIAPH2 / RFU, SKA2 / Fold change vs veh, SKA2 / RFU, AFF3 / Fold change vs veh, AFF3 / RFU, LMF1 / Fold change vs veh, LMF1 / RFU, IPO11 / Fold change vs veh, IPO11 / RFU, DFFB / Fold change vs veh, DFFB / RFU, FOXP1 / Fold change vs veh, FOXP1 / RFU, CARD8 / Fold change vs veh, CARD8 / RFU, STRN3 / Fold change vs veh, STRN3 / RFU, ADK / Fold change vs veh, ADK / RFU, RASSF2 / Fold change vs veh, RASSF2 / RFU, WIPF1 / Fold change vs veh, WIPF1 / RFU, LARP1B / Fold change vs veh, LARP1B / RFU, RASA1 / Fold change vs veh, RASA1 / RFU, RB1 / Fold change vs veh, RB1 / RFU, PPFIA1 / Fold change vs veh, PPFIA1 / RFU, MAT2A / Fold change vs veh, MAT2A / RFU, CCT5 / Fold change vs veh, CCT5 / RFU, WDR92 / Fold change vs veh, WDR92 / RFU, CUX1 / Fold change vs veh, CUX1 / RFU, TTC7A / Fold change vs veh, TTC7A / RFU, TMEM135 / Fold change vs veh, TMEM135 / RFU, DEPTOR / Fold change vs veh, DEPTOR / RFU, CPM / Fold change vs veh, CPM / RFU, DNAJB6 / Fold change vs veh, DNAJB6 / RFU, CACNA2D3 / Fold change vs veh, CACNA2D3 / RFU, DTX4 / Fold change vs veh, DTX4 / RFU, TFCP2 / Fold change vs veh, TFCP2 / RFU, GMCL1 /// GMCL1P1 / Fold change vs veh, GMCL1 /// GMCL1P1 / RFU, AEBP2 / Fold change vs veh, AEBP2 / RFU, SNHG1 /// SNORD22 /// SNORD25 /// SNORD26 /// SNORD27 /// SNORD28 /// SNORD29 /// SNORD31 / Fold change vs veh, SNHG1 /// SNORD22 /// SNORD25 /// SNORD26 /// SNORD27 /// SNORD28 /// SNORD29 /// SNORD31 / Fold change (Aza/veh), C12orf56 (ProbeSet 11735607_a_at) / Fold change (ACY-1035/veh), C12orf56 (ProbeSet 11735607_a_at) / Fold change (Aza/veh), FGFR1OP (ProbeSet 11751329_s_at) / Fold change (ACY-1035/veh), FGFR1OP (ProbeSet 11751329_s_at) / Fold change (Aza/veh), VPS36 (ProbeSet 11739960_a_at) / Fold change (ACY-1035/veh), VPS36 (ProbeSet 11739960_a_at) / RFU SYPL1 (11715823_x_at) / Fold change /veh SYPL1 (11715823_x_at) / RFU IGFBP7 (11715501_s_at) / Fold change /veh IGFBP7 (11715501_s_at) / RFU REEP3 (11722064_at) / Fold change /veh REEP3 (11722064_at) / RFU IGLL1 (11728026_x_at) / Fold change /veh IGLL1 (11728026_x_at): dose or concentration left out as unconfirmed
# Details: ProbeSet 11720269_a_at; LIST B
smiles,measurement,value
Nc1ncn([C@@H]2O[C@H](CO)[C@@H](O)[C@H]2O)c(=O)n1 [azacitidine],"RFU, IBTK",763.53 RFU
